From BindingDB's records for doi:10.1016/s0165-0270(00)00358-7 (University of Nebraska, 2001)

Biological target: T1, Alpha-2C adrenergic receptor (Rattus norvegicus, UniProt P22086)
T1 sequence (P22086 whole entry): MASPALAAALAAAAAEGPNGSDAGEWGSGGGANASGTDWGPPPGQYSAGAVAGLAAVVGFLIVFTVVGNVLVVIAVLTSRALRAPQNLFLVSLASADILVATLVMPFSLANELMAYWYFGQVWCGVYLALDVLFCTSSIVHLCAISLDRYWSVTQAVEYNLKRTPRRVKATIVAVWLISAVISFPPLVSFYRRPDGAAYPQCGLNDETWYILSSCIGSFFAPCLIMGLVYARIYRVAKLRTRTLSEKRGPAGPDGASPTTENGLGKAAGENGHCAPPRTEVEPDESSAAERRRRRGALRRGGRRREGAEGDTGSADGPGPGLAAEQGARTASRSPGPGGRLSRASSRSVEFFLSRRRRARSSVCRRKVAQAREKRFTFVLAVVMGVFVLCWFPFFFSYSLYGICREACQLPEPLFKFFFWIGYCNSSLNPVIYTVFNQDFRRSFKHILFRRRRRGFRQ

Row | Ki [nM] | Compound
1 | 6.2 | Nc1nc2c(ncn2[C@@H]2O[C@H](COP(=O)(O)OP(=O)(O)NP(=O)(O)O)[C@@H](O)[C@H]2O)c(=O)[nH]1 [CAS_59803-98-4]
2 | 1.6 | [N-]=[N+]=Nc1ccc(NP(=O)(O)OP(=O)(O)OP(=O)(O)OC[C@H]2O[C@@H](n3cnc4c(=O)[nH]c(N)nc43)[C@H](O)[C@@H]2O)cc1 [CAS_59803-98-4]

Row | Compound | Ki [nM]
3 | Nc1ncnc2c1ncn2[C@@H]1O[C@H](COP(=O)(O)OP(=O)(O)OP(=O)(O)O)[C@@H](O)[C@H]1O | 3.1
